Experimental data taken from patent US11016062B2, “System and method of measuring cell viability and growth” (University of South Florida, priority 2015, dated 2021).

Legend:
[1] = test system: BT474-SCTs; assay: Sensitivity of BT474 single cell-line tumoroids (SCTs) on PNS to lapatinib, PrestoBlue cell viability; assay type: cell-based; conditions: Homo sapiens, BT-474, BT474-SCTs cultured on PNS, lapatinib 72 h
Protocol: (§1) FIGS. 9A-C are a series of images depicting growth of BT474 derived SCTs (A) and MCTs (B) for 6 days on PNS; tumoroids are stained with calcein AM/EthD-1. Confocal (merged z-stacked) images showing presence of ECs (vWF, green cells), CAFs (SMA positive, red cells) and DAPI (cell nuclei) in BT474-MCTs imaged by confocal microscopy (merged z-stacked images). (C) Differential response of BT474-SCTs and -MCTs to lapatinib. On day 2 after co-culture, BT474 cells were treated with increasing concentrations (μM) of lapatinib for 72 h; cell viability was measured by PrestoBlue assay.
The inventors examined sensitivity of BT474-SCTs and -MCTs to lapatinib. […] These include, IL-6, IL-8, vascular endothelial growth factor (VEGF), monocyte chemotactic protein 1 (MCP-1), platelet derived growth factor BB (PDGF-BB), dickkopf-1 (DKK-1, inhibitor of Wnt signaling pathway), osteoprotegerin (OPG, a negative regulator of bone remodeling) and MMP-3, which have been implicated in tumor metastasis, angiogenesis, cancer stem cell amplification or drug resistance. In addition, five tumoroid biomarkers that are found expressed abundantly in MCTs (vs SCTs) and can be considered as predictors of clinical efficacy for lapatinib, included, a) marker for cell proliferation: Ki67, and b) stromal derived factors: IL-6, MCP-1, VEGF and DKK-1 (FIG. 9D).

[2] = test system: BT474-MCTs; assay: Sensitivity of BT474 multi-cell tumoroids (MCTs, co-culture with ECs and CAFs) on PNS to lapatinib, PrestoBlue cell viability; assay type: cell-based; conditions: Homo sapiens, BT-474, BT474-MCTs in the presence of ECs and CAFs on PNS, lapatinib 72 h
Protocol: as §1
The inventors established conditions to co-culture tumor cells with ECs and CAFs to allow formation of robust MCTs. […] The presence of CAFs and ECs in the MCTs was confirmed by immunohistochemistry using anti-smooth muscle actin (SMA) and antivon Willebrand factor (vWF) antibodies for CAFs and ECs, respectively, followed by confocal microscopy (FIG. 9B). On day 5 after co-culture, CAFs were found dispersed throughout the MCT, whereas ECs were found mostly on the edge of the MCT.
The inventors examined sensitivity of BT474-SCTs and -MCTs to lapatinib. […]

## CS(=O)(=O)CCNCc1ccc(-c2ccc3ncnc(Nc4ccc(OCc5cccc(F)c5)c(Cl)c4)c3c2)o1 [lapatinib]
[1]
  IC50: < 2.5 µM
[2]
  IC50: > 10 µM
